# Measured values as given in paper PMC12396409, “Screening and hit evaluation of a microbial metabolite library against the pathogenic Plasmodium falciparum and Toxoplasma gondii parasites” (International Journal for Parasitology: Drugs and Drug …, 2025).
# Read-outs that look alike come from different tables or passages of the source.
# Experiments:
# [1] = system: P. falciparum 3D7 parasites; assay: P. falciparum growth inhibition assay, 1-cycle (72 h treatment), SYBR DNA staining (library screen at 2 μg/mL and dose-response); assay type: cell-based, Plasmodium falciparum
# [2] = system: P. falciparum 3D7 parasites; assay: P. falciparum growth inhibition assay, 2-cycle (120 h treatment), delayed-death screen and dose-response; assay type: cell-based, Plasmodium falciparum; conditions: for 3) Fold change (72 h/120 h): growth at 72 h / growth at 120 h
# [3] = system: T. gondii RH strain (RH-Tub-eYFP) tachyzoites; assay: microbe, parasite or virus in culture; assay type: cell-based, Toxoplasma gondii; conditions: 72 h; for percent parasite growth at 2 µg/mL: Toxoplasma gondii
# [4] = library screen at 2 μg/mL, 72 h, % growth, replicate 1
# [5] = library screen at 2 μg/mL, 72 h, % growth, replicate 2
# [6] = library screen at 2 μg/mL, 120 h, % growth, replicate 1
# [7] = library screen at 2 μg/mL, 120 h, % growth, replicate 2
# [8] = library screen at 2 μg/mL, % growth, replicate 1
# [9] = library screen at 2 μg/mL, % growth, replicate 2
# [10] = P. falciparum 3D7, 72 h, library screen at 2 μg/mL, % growth, replicate 1
# [11] = P. falciparum 3D7, 72 h, library screen at 2 μg/mL, % growth, replicate 2
# [12] = P. falciparum 3D7, 120 h, library screen at 2 μg/mL, % growth, replicate 1
# [13] = P. falciparum 3D7, 120 h, library screen at 2 μg/mL, % growth, replicate 2
# [14] = T. gondii RH, library screen at 2 μg/mL, % growth, replicate 1
# [15] = T. gondii RH, library screen at 2 μg/mL, % growth, replicate 2
# [16] = P. falciparum, 72 h, parasite screen 2 μg/mL, % growth, replicate 1
# [17] = P. falciparum, 72 h, parasite screen 2 μg/mL, % growth, replicate 2
# [18] = P. falciparum, 120 h, parasite screen 2 μg/mL, % growth, replicate 1
# [19] = P. falciparum, 120 h, parasite screen 2 μg/mL, % growth, replicate 2
# [20] = T. gondii, parasite screen 2 μg/mL, % growth, replicate 1
# [21] = T. gondii, parasite screen 2 μg/mL, % growth, replicate 2
molecule,measurement,setting,value
Cc1cc(=O)c(O)cc2c1C[C@@H]1CC(C)(C)/C=C/C[C@@]3(C)Oc4cc(O)c(=O)cc(C)c4C[C@@H]3C[C@@H](O)[C@]1(C)O2 [Eupenifeldin],1) Growth (%) at 72 h,"[1]; P. falciparum, 2 μg/mL, 72 h",28.81%
same,Mean,"[1]; P. falciparum, 72 h, 2 μg/mL, mean of both replicates, growth (% of control)",28.81
same,Pf_72h_%Growth_Rep1,[1]; [4],0.51%
same,Pf_72h_%Growth_Rep2,[1]; [5],57.11%
same,2) Growth (%) at 120 h,"[2]; P. falciparum, 2 μg/mL, 120 h",14.46%
same,3) Fold change (72 h/120 h),"[2]; P. falciparum, 2 μg/mL",2.0
same,Pf_120h_%Growth_Rep1,[2]; [6],3.95%
same,Pf_120h_%Growth_Rep2,[2]; [7],24.96%
same,Tg_72h_%Growth_Rep1,[3]; [8],1.55%
same,Tg_72h_%Growth_Rep2,[3]; [9],1.71%
"CC[C@H]1OC(=O)C[C@@H](O)[C@H](C)[C@@H](O[C@@H]2O[C@H](C)[C@@H](O[C@H]3C[C@@](C)(O)[C@@H](O)[C@H](C)O3)[C@H](N(C)C)[C@H]2O)[C@@H](CC=O)C[C@@H](C)C(=O)/C=C/C(C)=C/[C@@H]1CO[C@@H]1O[C@H](C)[C@@H](O)[C@@H](OC)[C@H]1OC [Tylosin, reference compound]",activity at 2 µg/mL,"[1]; Plasmodium falciparum, 3D7; P. falciparum, 2 μg/mL, 72 h; read-out: 1) Growth (%) at 72 h",39.2%
same,activity at 2 µg/mL,"[1]; Plasmodium falciparum, 3D7, P. falciparum, 72 h, screen at 2 μg/mL, replicate 1, read-out: Pf_72h_%Growth_Rep1",39.8%
same,activity at 2 µg/mL,"[1]; Plasmodium falciparum, 3D7, P. falciparum, 72 h, screen at 2 μg/mL, replicate 2, read-out: Pf_72h_%Growth_Rep2",38.7%
same,3) Fold change (72 h/120 h),"[2]; P. falciparum, 2 μg/mL",2.3
same,activity at 2 µg/mL,"[2]; Plasmodium falciparum, 3D7; P. falciparum, 2 μg/mL, 120 h; read-out: 2) Growth (%) at 120 h",17.3%
same,activity at 2 µg/mL,"[2]; Plasmodium falciparum, 3D7, P. falciparum, 120 h, screen at 2 μg/mL, replicate 1, read-out: Pf_120h_%Growth_Rep1",31.5%
same,activity at 2 µg/mL,"[2]; Plasmodium falciparum, 3D7, P. falciparum, 120 h, screen at 2 μg/mL, replicate 2, read-out: Pf_120h_%Growth_Rep2",3.04%
same,percent parasite growth at 2 µg/mL,"[3]; T. gondii, screen at 2 μg/mL, replicate 1, read-out: Tg_72h_%Growth_Rep1",29.4%
same,percent parasite growth at 2 µg/mL,"[3]; T. gondii, screen at 2 μg/mL, replicate 2, read-out: Tg_72h_%Growth_Rep2",23.4%
Enniatin A,Pf_72h_%Growth_Rep1,[1]; [4],2.40%
same,Pf_72h_%Growth_Rep2,[1]; [5],-1.22%
same,Pf_120h_%Growth_Rep1,[2]; [6],12.21%
same,Pf_120h_%Growth_Rep2,[2]; [7],16.45%
same,Tg_72h_%Growth_Rep1,[3]; [8],2.24%
same,Tg_72h_%Growth_Rep2,[3]; [9],14.07%
CCC(C(=O)C(C)C(O)C(C)CCc1ccc(C)c(O)c1C(=O)O)C1OC(CC)(C2CCC(O)(CC)C(C)O2)CC1C (stereo not drawn) [BIA-L1533],Pf_72h_%Growth_Rep1,[1]; [10],6.55%
same,Pf_72h_%Growth_Rep2,[1]; [11],4.89%
same,Pf_120h_%Growth_Rep1,[2]; [12],6.55%
same,Pf_120h_%Growth_Rep2,[2]; [13],19.46%
same,Tg_72h_%Growth_Rep1,[3]; [14],-0.84%
same,Tg_72h_%Growth_Rep2,[3]; [15],-0.33%
Cc1c2ccocc-2oc1=O [BIA-K1791],Pf_72h_%Growth_Rep1,[1]; [10],78.18%
same,Pf_72h_%Growth_Rep2,[1]; [11],121.18%
same,Pf_120h_%Growth_Rep1,[2]; [12],94.18%
same,Pf_120h_%Growth_Rep2,[2]; [13],112.81%
same,Tg_72h_%Growth_Rep1,[3]; [14],112.84%
same,Tg_72h_%Growth_Rep2,[3]; [15],99.08%
C/C=C/C[C@@H](C)[C@@H](O)[C@H]1C(=O)N[C@@H](CC)C(=O)N(C)CC(=O)N(C)[C@@H](CC(C)C)C(=O)N[C@@H](C(C)C)C(=O)N(C)[C@@H](CC(C)C)C(=O)N[C@@H](C)C(=O)N[C@H](C)C(=O)N(C)[C@@H](CC(C)C)C(=O)N(C)[C@@H](CC(C)C)C(=O)N(C)[C@H](C(C)C)C(=O)N1C [Cyclosporin H],Pf_72h_%Growth_Rep1,"[1]; P. falciparum, 72 h, screen at 2 μg/mL, replicate 1",6.54%
same,Pf_72h_%Growth_Rep2,"[1]; P. falciparum, 72 h, screen at 2 μg/mL, replicate 2",2.27%
same,Pf_120h_%Growth_Rep1,"[2]; P. falciparum, 120 h, screen at 2 μg/mL, replicate 1",5.94%
same,Pf_120h_%Growth_Rep2,"[2]; P. falciparum, 120 h, screen at 2 μg/mL, replicate 2",7.89%
same,Tg_72h_%Growth_Rep1,"[3]; T. gondii, screen at 2 μg/mL, replicate 1",148.50%
CCCCC[C@@]1(OC(=O)CCC(=O)O)CC[C@]2(CC[C@H](C)[C@@H](C/C=C(C)/C=C/[C@H](O)[C@@H](C)/C=C/C(=O)O)O2)O[C@H]1/C=C/C(C)=C/C(=O)O [Reveromycin D],Pf_72h_%Growth_Rep1,[1]; [16],62.63%
same,Pf_72h_%Growth_Rep2,[1]; [17],21.41%
same,Pf_120h_%Growth_Rep1,[2]; [18],51.02%
same,Pf_120h_%Growth_Rep2,[2]; [19],15.46%
same,Tg_72h_%Growth_Rep1,[3]; [20],109.29%
same,Tg_72h_%Growth_Rep2,[3]; [21],94.72%
C/C=C(\C)[C@H](O)[C@H](C)/C=C(C)/C=C/C/C(C)=C/Cc1oc(OC)c(C)c(=O)c1C [Actinopyrone A],Pf_72h_%Growth_Rep1,[1]; [4],87.45%
same,Pf_72h_%Growth_Rep2,[1]; [5],86.38%
same,Pf_120h_%Growth_Rep1,[2]; [6],139.24%
same,Pf_120h_%Growth_Rep2,[2]; [7],89.64%
same,Tg_72h_%Growth_Rep1,[3]; [8],80.38%
same,Tg_72h_%Growth_Rep2,[3]; [9],90.86%
CCCCCCCCCCCCCCCC(=O)C1=C(O)C(CO)OC1=O (stereo not drawn) [RK-682],Pf_72h_%Growth_Rep1,[1]; [16],82.69%
same,Pf_72h_%Growth_Rep2,[1]; [17],35.30%
same,Pf_120h_%Growth_Rep1,[2]; [18],73.75%
same,Pf_120h_%Growth_Rep2,[2]; [19],72.22%
same,Tg_72h_%Growth_Rep1,[3]; [20],107.18%
same,Tg_72h_%Growth_Rep2,[3]; [21],84.15%
